Reference: patent US6384074B1, “Cell growth activating composition containing compound having labdane structure” (Takasago International Corporation, priority 1998, dated 2002)

How the values were obtained:
[1] = tested on: mushroom-derived tyrosinase; assay: Mushroom tyrosinase inhibition test; assay type: biochemical; settings: L-tyrosine substrate, 37° C. 30 minutes
Description: After reaction, the absorbance (OD) at a wavelength of 490 nm was measured and the degree of inhibition of tyrosinase reaction was determined according to the following equation. […] Sample: The buffer, the enzyme solution, the substrate solution and the sample solution Sample-free: The buffer, the enzyme solution and the substrate solution Blank: The buffer and the enzyme solution

[2] = target: T1, tyrosinase in B16 melanoma cells (Mus musculus, UniProt P11344); assay: Test of tyrosinase inhibition in B16 melanoma cells (crude enzyme solution); assay type: biochemical; settings: L-DOPA substrate, 37° C. 3 hours; for Degree of inhibition of tyrosinase in B16 melanoma cells: 25 ppm
T1 construct: the resulting supernatant was used as a crude enzyme solution; endogenous in cells; host or cells: B16 melanoma cells (Triton X100 lysate, sonicated, 11,000 G supernatant)
T1 sequence (P11344 19-533): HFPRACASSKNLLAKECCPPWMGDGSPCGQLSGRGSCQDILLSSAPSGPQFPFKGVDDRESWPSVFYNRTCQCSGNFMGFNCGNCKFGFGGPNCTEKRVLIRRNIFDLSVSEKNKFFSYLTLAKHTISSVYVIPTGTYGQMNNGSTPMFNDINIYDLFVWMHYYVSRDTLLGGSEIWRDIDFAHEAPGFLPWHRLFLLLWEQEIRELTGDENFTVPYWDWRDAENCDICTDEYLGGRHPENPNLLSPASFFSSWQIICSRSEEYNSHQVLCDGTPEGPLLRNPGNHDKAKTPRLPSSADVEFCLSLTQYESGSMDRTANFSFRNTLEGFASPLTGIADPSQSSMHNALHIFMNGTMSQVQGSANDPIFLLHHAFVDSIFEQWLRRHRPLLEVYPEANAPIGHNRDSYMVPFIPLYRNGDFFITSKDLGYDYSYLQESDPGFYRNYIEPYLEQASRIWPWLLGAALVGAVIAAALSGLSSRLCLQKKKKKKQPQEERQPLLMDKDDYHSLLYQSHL
Description: B16 melanoma cells were cultured for 3 days in DMEM containing 10% FBS at 37° C. in the presence of 5% carbon dioxide. The cells proliferated after culture were recovered by treatment with trypsin, then suspended in PBS containing 0.1% Triton X100 at a density of ten million cells/ml and disrupted by sonication. The product obtained was centrifuged at 11,000 G for 20 minutes, and the resulting supernatant was used as a crude enzyme solution. Added thereto was 0.2 ml of crude enzyme solution. The mixture was preliminarily kept at 37° C. for 5 minutes, and 0.2 ml L-DOPA solution (0.5 mg/ml) was added as the substrate, and the mixture was kept at 37° C. for 3 hours.

B16 melanoma cells [3] = assay: Combination test with existing tyrosinase inhibitors (method of Test Example 1); assay type: cell-based; settings: alone
Description: B16 melanoma cells were suspended (10,000 cells/ml) in DMEM (Dulbecco's modified eagle medium) containing 10% FBS (fetal bovine serum) and 8 ml of the suspension was added to a cell culture bottle with a 25 cm^2 bottom surface area, and cultured at 37° C. in the presence of 5% carbon dioxide for 3 days. After 3 days of culture, the old medium was exchanged with 8 ml of fresh medium. 40 micro-liters of a sample solution, in which compounds of the present invention had been dissolved in ethanol to give a final concentration shown in the table, were further added thereto. As the control, ethanol only was added. After the medium change, the cells were further cultured for 3 days under the same conditions. […] Degree of cell proliferation (%)=(number of cells in sample)/(number of cells in control)×100 […] Using a calibration curve of synthetic melanin, the amount of melanin/million cells was determined from the OD and the degree of inhibition of melanin production was determined according to the following equation: Degree of inhibition of melanin (%)=(amount of melanin in control−amount of melanin in sample)/(amount of melanin in control)×100 […]

B16 melanoma cells [4] = assay: Melanin formation prevention test (melanin production and cell proliferation); assay type: cell-based; settings: for Degree of cell proliferation: relative to ethanol control
Description: B16 melanoma cells were suspended (10,000 cells/ml) in DMEM (Dulbecco's modified eagle medium) containing 10% FBS (fetal bovine serum) and 8 ml of the suspension was added to a cell culture bottle with a 25 cm^2 bottom surface area, and cultured at 37° C. in the presence of 5% carbon dioxide for 3 days. After 3 days of culture, the old medium was exchanged with 8 ml of fresh medium. 40 micro-liters of a sample solution, in which compounds of the present invention had been dissolved in ethanol to give a final concentration shown in the table, were further added thereto. As the control, ethanol only was added. After the medium change, the cells were further cultured for 3 days under the same conditions. After culture was finished, the medium was removed, and the cells were recovered by treatment with trypsin (DIFCO) and suspended in 4 ml of phosphate buffered saline (PBS) and a predetermined amount ( 1/40) of this suspension was used to measure the number of cells in a Coultar counter (Sysmex Co.) to determine the degree of cell proliferation.
The degree of cell proliferation was determined according to the following equations:
Degree of cell proliferation (%)=(number of cells in sample)/(number of cells in control)×100
The remainder of the cell suspension was centrifuged and then washed with 5% trichloroacetic acid, then with ethanol/ethyl ether (3:1 by volume), and with ethyl ether and the cells were dried, and 2N—NaOH was added thereto to dissolve (melanin in) the cells under heating at 70° C. and measured for its optical density (OD) at 420 nm. Using a calibration curve of synthetic melanin, the amount of melanin/million cells was determined from the OD and the degree of inhibition of melanin production was determined according to the following equation:
Degree of inhibition of melanin (%)=(amount of melanin in control−amount of melanin in sample)/(amount of melanin in control)×100

[5] = tested on: Human-derived normal skin fibroblasts (NB1RGB); assay: Test of cell activating activity (fibroblast proliferation); assay type: cell-based; settings: relative to ethanol control (100)
Description: Human-derived normal skin fibroblasts (NB1RGB: Institute of Physical and Chemical Research) were suspended into DMEM containing 10% FBS to give a concentration of 20,000 cells/ml, and 5 ml each of this cellular suspension was introduced into each of 25 cm^2 bottles, cultured at 37° C. in the presence of 5% carbon dioxide for 24 hours. To each bottle, was added 10 micro-liter (0.2%) of the ethanol solution containing the compound to give the final concentration shown in Table 8. The cells were cultured for an additional 3 days. After 3 days the old medium was discarded and 5 ml fresh medium was added, and the sample was further added thereto. After this exchange of the medium, the cells were further cultured for another 3 days. Then cells were removed with trypsin and the number of cells in each bottle was counted with a Coultar counter. Simultaneously, as the control, only ethanol was added and the NB1RGB cells were cultured and the number of cells were counted in the same manner. The number of cells in each bottle to which the sample had been added was determined as a relative value to the number (as 100) of cells in the control after cultured, and the results are shown in Table 8.

[6] = tested on: Staphylococcus epidermidis JCM 2414; assay: Anti-bacterial activity test, agar medium dilution method; assay type: cell-based; settings: Se-1
Description: (§1) The aerobic microorganisms were examined in an agar medium dilution method and the anaerobic microorganisms were examined in a liquid medium dilution method under anaerobic culture conditions. Muller Hinton agar medium (DIFCO) was heated and dissolved and 10 ml of the medium was introduced into each test tube, sterilized and used. The sample was prepared by dissolving in ethanol and the resulting ethanol solution was diluted 2-fold serially with ethanol, and 100 micro-liters of sample solution were added to 10 ml of each dissolved agar medium, then stirred, introduced into a Petri dish of 9 cm in diameter, and solidified at room temperature. Each test microorganism in a well grown slant was inoculated via one loop of platinum into 10 ml Muller Hinton broth (DIFCO) and cultured with shaking at 27° C. for 24 hours and used as a microbial fluid. This fluid was diluted at 10^8 CFU (Colony forming unit)/ml, and 5 micro-liters of the diluted fluid were inoculated onto the agar and cultured at 37° C. overnight. Inoculation of the microorganism was conducted using microplanter MIT-P for 27 tubes test microorganisms (Sakuma Seisakusho K. K.).

[7] = tested on: Corynebacterium xerosis JCM 1324; assay: as above; assay type: cell-based; settings: Cx-2
Description: as §1

[8] = tested on: Malassezia furfur IFO 0656; assay: as above; assay type: cell-based; settings: Mf-1
Description: as §1

[9] = tested on: Bacillus subtilis PCI 219 IFO 3134; assay: as above; assay type: cell-based; settings: Bs-1
Description: as §1

[10] = tested on: Corynebacterium minutissimum ATCC 23348; assay: as above; assay type: cell-based; settings: Cm-1
Description: as §1

[11] = tested on: Staphylococcus epidermidis var. H-6; assay: as above; assay type: cell-based; settings: Se-2
Description: as §1

[12] = tested on: Staphylococcus aureus IFO 12732; assay: as above; assay type: cell-based; settings: Sa-3
Description: as §1

[13] = 0.4 ppm, Table 2, combined use with arbutin
[14] = 0.4 ppm, Table 4, combined use with ellagic acid

OC[C@H]1O[C@@H](Oc2ccc(O)cc2)[C@H](O)[C@@H](O)[C@@H]1O [Arbutin, reference compound]
Degree of inhibition of mushroom tyrosinase ([1]; 100 ppm): 29%
inhibition at 100 ppm ([2]; 100 ppm, read-out: Degree of inhibition of tyrosinase in B16 melanoma cells): 35%
Degree of cell proliferation (B16 melanoma cells [3]; 0.8 ppm, Table 2, combined use with arbutin): 89%
inhibition at 0.8 ppm (B16 melanoma cells [3]; Mus musculus, B16, 0.8 ppm, Table 2, combined use with arbutin, read-out: Degree of melanin inhibition): 22%
Degree of cell proliferation (B16 melanoma cells [4]; 6.3 ppm): 100%
inhibition at 6.3 ppm (B16 melanoma cells [4]; Mus musculus, 72 h, 6.3 ppm, 3 days, read-out: Degree of melanin inhibition): 74%

CCOC(=O)CC(C)CCC1=C(C)CCC2C(C)(C)CCCC12C (centres unmarked) [Compound 3, labd-8-en-15-oic acid ethyl ester]
Degree of cell proliferation of fibroblasts ([5]; 8.0 ppm): 134%
Degree of melanin inhibition (B16 melanoma cells [4]; 6.3 ppm, 3 days): 74%
Degree of cell proliferation (B16 melanoma cells [4]; 6.3 ppm): 115%

CC1=CCC2C(C)(C)CCCC2(C)C1CCC(C)CC(=O)O (centres unmarked) [Compound 4, labd-7-en-15-oic acid]
MIC [6]: 12.5 ppm
MIC [7]: 12.5 ppm
MIC [8]: 6.3 ppm
MIC [9]: 12.5 ppm
MIC [10]: 6.3 ppm
MIC [11]: 12.5 ppm
MIC [12]: 12.5 ppm
Degree of inhibition of mushroom tyrosinase ([1]; 25 ppm): 0%
Degree of inhibition of tyrosinase in B16 melanoma cells [2]: 0%
Degree of cell proliferation (B16 melanoma cells [3]; [13]): 115%
Degree of melanin inhibition (B16 melanoma cells [3]; [13]): 28%
Degree of melanin inhibition (B16 melanoma cells [4]; 6.3 ppm, 3 days): 87%
Degree of cell proliferation (B16 melanoma cells [4]; 6.3 ppm): 109%

CCOC(=O)CC(C)CCC1C(C)=CCC2C(C)(C)CCCC12C (centres unmarked) [Compound 6, labd-7-en-15-oic acid ethyl ester]
Degree of cell proliferation of fibroblasts ([5]; 8.0 ppm): 134%
Degree of melanin inhibition (B16 melanoma cells [4]; 6.3 ppm, 3 days): 74%
Degree of cell proliferation (B16 melanoma cells [4]; 6.3 ppm): 109%

C=C1CCC2C(C)(C)CCCC2(C)C1CCC(C)CC(=O)O (centres unmarked) [Compound 7, labd-8(17)-en-15-oic acid]
MIC [6]: 6.3 ppm
MIC [7]: 12.5 ppm
MIC [8]: 6.3 ppm
MIC [9]: 12.5 ppm
MIC [10]: 12.5 ppm
MIC [11]: 6.3 ppm
MIC [12]: 12.5 ppm
Degree of cell proliferation of fibroblasts ([5]; 8.0 ppm): 128%
Degree of inhibition of mushroom tyrosinase ([1]; 25 ppm): 0%
Degree of inhibition of tyrosinase in B16 melanoma cells [2]: 0%
Degree of cell proliferation (B16 melanoma cells [3]; [14]): 111%
Degree of melanin inhibition (B16 melanoma cells [3]; [14]): 30%
Degree of melanin inhibition (B16 melanoma cells [4]; 6.3 ppm, 3 days): 79%
Degree of cell proliferation (B16 melanoma cells [4]; 6.3 ppm): 111%

C=C1CCC2C(C)(C)CCCC2(C)C1CCC(C)CC(=O)OCC (centres unmarked) [Compound 9, labd-8(17)-en-15-oic acid ethyl ester]
Degree of cell proliferation of fibroblasts ([5]; 8.0 ppm): 127%
Degree of melanin inhibition (B16 melanoma cells [4]; 6.3 ppm, 3 days): 61%
Degree of cell proliferation (B16 melanoma cells [4]; 6.3 ppm): 103%

O=c1oc2c(O)c(O)cc3c(=O)oc4c(O)c(O)cc1c4c23 [Ellagic acid, reference compound]
Degree of cell proliferation (B16 melanoma cells [3]; 1.6 ppm, Table 4, combined use with ellagic acid): 98%
inhibition at 1.6 ppm (B16 melanoma cells [3]; Mus musculus, B16, 1.6 ppm, Table 4, combined use with ellagic acid, read-out: Degree of melanin inhibition): 17%
Degree of cell proliferation (B16 melanoma cells [4]; 3.1 ppm): 98%
inhibition at 3.1 ppm (B16 melanoma cells [4]; Mus musculus, 72 h, 3.1 ppm, 3 days, read-out: Degree of melanin inhibition): 68%

O=C(O)CO [Glycolic acid, reference compound]
Degree of cell proliferation of fibroblasts ([5]; 4.0 ppm): 120%
